Format in all cases: cell-based
Assay [1] relates to human PBMC. In words: IFN-gamma secretion by human PBMC (ELISA). The settings on record: 48 hours, compared to R-848, not shown. As for the experimental part: This experiment investigated the induction of the Th1 cytokine IFN-gamma as well as the Th1-related chemokine IP-10 (IFN-gamma inducible protein). Unfractionated human PBMC from three donors were incubated for 48 hours in the presence of varying concentrations of R-848 (0.01-1.0 μg/ml), varying concentrations of CpG ODN 2006 (0.2-3.0 μg/ml), varying concentrations of negative control ODN 5177 (0.2-3.0 μg/ml), SEB (50 ng/ml), or media alone, and then the concentrations of IP-10 and IFN-gamma in the supernatant were measured by ELISA.

Assay [2] addresses T1, hTLR9 (Homo sapiens, UniProt Q9NR96, H530R/Q688R).
T1 construct: 293-TLR9-Luc cells contain a genomic copy of the hTLR9 open reading frame and the NF-kappa B-luciferase cassette; expressed in transfected cells; host or cells: 293-TLR9-Luc (stably transfected human embryo kidney 293 cells)
T1 sequence (Q9NR96 26-1032 H530R/Q688R): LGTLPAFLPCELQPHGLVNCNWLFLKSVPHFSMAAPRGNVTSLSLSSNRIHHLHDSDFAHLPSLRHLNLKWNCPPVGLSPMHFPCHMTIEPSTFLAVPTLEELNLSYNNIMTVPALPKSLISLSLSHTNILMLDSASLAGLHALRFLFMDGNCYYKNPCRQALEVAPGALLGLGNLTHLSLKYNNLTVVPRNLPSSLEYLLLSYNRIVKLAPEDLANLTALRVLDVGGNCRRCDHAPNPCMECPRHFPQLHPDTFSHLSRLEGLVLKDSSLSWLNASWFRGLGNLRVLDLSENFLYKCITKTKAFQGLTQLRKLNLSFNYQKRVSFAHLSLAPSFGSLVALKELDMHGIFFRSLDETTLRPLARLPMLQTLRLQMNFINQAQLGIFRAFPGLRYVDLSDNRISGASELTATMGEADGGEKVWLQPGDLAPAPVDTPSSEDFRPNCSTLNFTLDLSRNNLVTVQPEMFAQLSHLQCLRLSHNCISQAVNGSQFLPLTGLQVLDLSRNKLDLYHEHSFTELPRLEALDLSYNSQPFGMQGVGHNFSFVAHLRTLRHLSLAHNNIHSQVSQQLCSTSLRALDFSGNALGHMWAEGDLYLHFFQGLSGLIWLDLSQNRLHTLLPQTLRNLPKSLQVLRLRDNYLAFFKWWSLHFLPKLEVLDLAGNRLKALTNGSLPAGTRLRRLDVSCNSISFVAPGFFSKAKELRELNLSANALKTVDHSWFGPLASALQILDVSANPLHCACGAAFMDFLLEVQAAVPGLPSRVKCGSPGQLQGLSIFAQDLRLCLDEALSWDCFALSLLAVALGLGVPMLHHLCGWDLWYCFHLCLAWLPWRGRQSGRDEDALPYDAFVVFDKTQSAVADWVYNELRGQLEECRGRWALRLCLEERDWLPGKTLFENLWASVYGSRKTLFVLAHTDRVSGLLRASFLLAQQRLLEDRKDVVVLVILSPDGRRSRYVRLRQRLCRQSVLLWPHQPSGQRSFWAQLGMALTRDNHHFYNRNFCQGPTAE
The experiment in a line: Reconstitution of hTLR9 signaling in 293 fibroblasts (NF-kappa B luciferase, IL-8 ELISA). The settings on record: 2006 2 μM, LPS 100 ng/ml, FIG. 10. An excerpt: Methods for cloning murine and human TLR9 have been described in pending U.S. patent application Ser. No. 09/954,987, filed Sep. 17, 2001, and published PCT application PCT/US01/29229, the contents of which are incorporated by reference. Human TLR9 cDNA (SEQ ID NO:6, GenBank Accession No. AF245704) and murine TLR9 cDNA (SEQ ID NO:8, GenBank Accession No. AF348140) in pT-Adv vector (from Clontech) were individually cloned into the expression vector pcDNA3.1 (−) from Invitrogen using the EcoRi site. Utilizing a “gain of function” assay it was possible to reconstitute human TLR9 (hTLR9) and murine TLR9 (mTLR9) signaling in CpG-DNA non-responsive human 293 fibroblasts (ATCC, CRL-1573). The expression vectors mentioned above were transfected into 293 fibroblast cells using the calcium phosphate method. […]
Since NF-kappa B activation is central to the IL-1/TLR signal transduction pathway (Medzhitov R et al. (1998) Mol Cell 2:253-258 (1998); Muzio M et al. (1998) J Exp Med 187:2097-101), cells were transfected with hTLR9 or co-transfected with hTLR9 and an NF-kappa B-driven luciferase reporter construct. […] After stimulus with CpG-ODN (2006, 2 μM, […], SEQ ID NO:1), GpC-ODN (2006-GC, 2 μM, […], SEQ ID NO:10), LPS (100 ng/ml) or media, NF-kappa B activation by luciferase readout (8 h, FIG. 10A) or IL-8 production by ELISA (48 h, FIG. 10B) were monitored. […]
In general terms: ELISA stands for enzyme-linked immunosorbent assay.

Assay [3] addresses T1, hTLR9. In words: NF-kappa B luciferase activation in stably transfected 293-TLR9-Luc cells. As for the experimental part:
Cells used for transfections were 293T (human embryo kidney cells, T-antigen transfected) or 293-TLR9-Luc (stable transfectants, human embryo kidney cells expressing the human TLR9 receptor and containing a genomic NF-kappa B-luciferase cassette).
Stimulation was performed 24 h after transfection. Medium of the cells was reduced to 1 ml (without medium change) and cells were stimulated with indicated amounts of R-848, LPS, ODN 8954, 2006 and IL-1 beta for 16 h.
Cell extracts were prepared by lysing the cells in 100 μl reporter lysis buffer using the freeze-thaw method. NF-kappa B stimulation was measured through luciferase activity (Promega). All data were normalized for beta-gal expression. Stimulation indices were calculated in reference to luciferase activity of medium without addition of ODN.
Since R-848 has immune modulatory properties, this experiment examined whether R-848-mediated immune responses are hTLR9-dependent. Cells stably transfected with hTLR9 and a NF-kappa B reporter construct (293-TLR-Luc cells) were incubated for 16 hours with IL-1, CpG ODN 2006, control non-CpG ODN 1982 (5′ […] 3′, SEQ ID NO:3), or increasing amounts of R-848. NF-kappa B activation was determined by measurement of luciferase activity. Activity is given in x-fold activation compared to luciferase activity in medium control.

Consider CpG ODN 2006, for which the IFN-gamma induction entry in assay [1] is “The same result was obtained”. The “response of cells expressing hTLR9 (NF-kappa B luciferase 8 h, IL-8 48 h)” value in assay [2] is recorded as “responded to CpG-DNA”. Moreover, the “NF-kappa B activation (x-fold activation compared to luciferase activity in medium control)” value in assay [3] (293-TLR-Luc cells, 16 hours, 1 to 12 μg/ml) is given as 10- to 30 fold. The “hTLR9-mediated NF-kappa B activation (in words)” value in assay [3] (cells expressing hTLR9 alone, 293-TLR-Luc with pcDNA (empty vector)) is reported as “hTLR9-mediated activation of NF-kappa B by CpG ODN 2006”.

For the origin of these results see US20060188913A1, “Methods and products for enhancing immune responses using imidazoquinoline compounds” (University of Iowa Research Foundation, priority 2001, published 2006).
